Measurements taken from PMC11801377, “A uniquely efficacious type of CFTR corrector with complementary mode of action” (Science Advances, 2024).

Molecular target: T1, L206W CFTR (Homo sapiens, UniProt P13569, L206W)
T1 construct: expressed in transfected cells; host or cells: T-REx HEK293
Experiment: CFTR correction (immunoblotting), HEK-TREx, L206W
Format: cell-based
Settings: 48 hours, IDOR-3 2 μM, IDOR-4 0.4 μM, TEZ 2 μM + ELX 0.4 μM
Description: The human CFTR expressing HEK cell pools with the mutations described below were generated by integrase-mediated homologous recombination of the CFTR sequence into the T-REx HEK293 background (Thermo Fisher Scientific). This expression system allows the tetracycline-inducible expression of genes of interest from one defined insertion site. Parental T-REx-HEK293 cells were cultivated in growth medium: Dulbecco’s modified Eagle’s medium + GlutaMAX-I (#31966, Life Technologies), 10% dialyzed FBS (Gibco, #26400), penicillin (100 U/ml), streptomycin (100 μg/ml), hygromycin B (0.1 mg/ml; Life Technologies), blasticidin (5 μg/ml; Invitrogen, #R210-01), and 0.1 mM nonessential amino acid solution (Invitrogen, #11140-035). Recombinant T-REx-HEK-CFTR cells were generated by lipofectamine transfection (Life Technologies) of plasmids containing mutated versions of CFTR (RefSeq NM_000492) and then cultivated in selection medium [growth medium containing Geneticin (1 mg/ml) (Invitrogen, #10131-027) instead of hygromycin]. The plasmid constructs were synthetized by GENEART (Thermo Fisher Scientific) and designed with the WT CFTR intron 5 to 6 (880 nucleotides) to prevent leaky expression issues during the cloning process in bacteria. […]

T1 sequence (P13569 whole entry L206W): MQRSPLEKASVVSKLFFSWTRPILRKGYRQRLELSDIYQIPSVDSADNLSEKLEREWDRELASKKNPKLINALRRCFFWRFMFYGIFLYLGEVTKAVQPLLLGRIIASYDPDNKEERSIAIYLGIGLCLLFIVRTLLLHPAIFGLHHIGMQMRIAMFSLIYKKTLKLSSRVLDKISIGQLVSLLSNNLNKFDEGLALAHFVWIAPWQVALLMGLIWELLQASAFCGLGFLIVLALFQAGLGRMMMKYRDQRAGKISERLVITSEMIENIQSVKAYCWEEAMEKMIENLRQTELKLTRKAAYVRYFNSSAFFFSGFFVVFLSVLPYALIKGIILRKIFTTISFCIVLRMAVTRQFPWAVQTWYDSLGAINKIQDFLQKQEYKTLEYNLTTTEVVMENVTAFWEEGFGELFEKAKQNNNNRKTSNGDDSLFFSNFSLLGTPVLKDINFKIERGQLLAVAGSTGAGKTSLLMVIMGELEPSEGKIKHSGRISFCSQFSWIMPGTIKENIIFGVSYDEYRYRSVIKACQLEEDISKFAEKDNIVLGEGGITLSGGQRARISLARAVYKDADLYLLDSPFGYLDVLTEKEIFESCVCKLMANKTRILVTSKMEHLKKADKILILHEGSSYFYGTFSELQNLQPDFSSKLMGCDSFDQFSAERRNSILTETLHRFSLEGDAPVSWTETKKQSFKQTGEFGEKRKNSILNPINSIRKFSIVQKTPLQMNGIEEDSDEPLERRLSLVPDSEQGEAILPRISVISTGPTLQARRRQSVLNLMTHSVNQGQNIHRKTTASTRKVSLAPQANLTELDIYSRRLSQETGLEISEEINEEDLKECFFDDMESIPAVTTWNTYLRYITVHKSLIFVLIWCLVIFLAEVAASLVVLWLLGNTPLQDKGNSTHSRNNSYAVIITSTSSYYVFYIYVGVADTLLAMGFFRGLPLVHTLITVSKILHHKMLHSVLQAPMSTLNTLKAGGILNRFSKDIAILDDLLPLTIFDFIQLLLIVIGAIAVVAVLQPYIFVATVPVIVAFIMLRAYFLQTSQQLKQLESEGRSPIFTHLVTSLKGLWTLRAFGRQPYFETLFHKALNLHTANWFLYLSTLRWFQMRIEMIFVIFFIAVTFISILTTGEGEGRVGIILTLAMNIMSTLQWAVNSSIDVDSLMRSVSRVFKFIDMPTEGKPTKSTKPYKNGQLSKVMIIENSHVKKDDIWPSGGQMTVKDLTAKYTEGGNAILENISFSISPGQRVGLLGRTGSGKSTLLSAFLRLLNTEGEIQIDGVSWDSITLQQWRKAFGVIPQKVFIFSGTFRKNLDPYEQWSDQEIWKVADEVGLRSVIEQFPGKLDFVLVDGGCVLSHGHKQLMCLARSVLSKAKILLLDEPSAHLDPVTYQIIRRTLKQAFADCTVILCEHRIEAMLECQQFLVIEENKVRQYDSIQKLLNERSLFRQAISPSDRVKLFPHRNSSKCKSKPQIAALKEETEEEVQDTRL

## COc1cc(CCNC(=O)C2CC(=O)N(C)C(CC(C)C)C(=O)N3CCCCC3C(=O)NC(Cc3ccccc3)COc3ccc4ncc(F)cc4c3C(=O)N2)on1 (stereo not shown) [IDOR-3]
  correction of L206W: highly effective
